According to PubChem BioAssay AID256 (DTP/NCI, 2004):
Several values for one entry are separate records, joined by “and”; a condition that tells them apart may be missing. Equal entries are not always repeated. Toxic doses and inconclusive results are not listed. Rule for the calls: active = survival T/C of 150% or more; inactive = T/C below 125% in these data.

Test system: CD2F1 mice, L1210 leukemia ip, survival T/C
Test: NCI In Vivo Anticancer Drug Screen. Data for tumor model L1210 Leukemia (intraperitoneal) in CD2F1 (CDF1) mice
Settings: higher = longer survival
Outline: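 Activity against a transplanted murine tumor was judged by comparing the compound group with a vehicle group. The outcome in the treated animals was divided by that in the controls.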

[1] = endpoint: mean survival time, dose: 100.0 mg/kg/injection, schedule: Q04DX002 (ip), vehicle: saline with Tween-80
[2] = endpoint: mean survival time, dose: 200.0 mg/kg/injection, schedule: Q04DX002 (ip), vehicle: saline with Tween-80
[3] = endpoint: mean survival time, dose: 100.0 mg/kg/injection, schedule: Q01DX009 (ip), vehicle: saline with Tween-80
[4] = endpoint: mean survival time, dose: 200.0 mg/kg/injection, schedule: Q01DX009 (ip), vehicle: saline with Tween-80
[5] = endpoint: mean survival time, dose: 400.0 mg/kg/injection, schedule: Q01DX009 (ip), vehicle: saline with Tween-80
[6] = endpoint: mean survival time, dose: 50.0 mg/kg/injection, schedule: Q01DX009 (ip), vehicle: saline with Tween-80

Measured: T/C

NC(=S)N/N=C/c1ccc(OC(=O)COc2ccc(Cl)cc2)cn1
inactive: [1] 103 % of control and 111 % of control | endpoint: mean survival time, dose: 118.0 mg/kg/injection, schedule: Q01DX001 (ip), vehicle: saline with Tween-80 109 % of control | endpoint: mean survival time, dose: 178.0 mg/kg/injection, schedule: Q01DX001 (ip), vehicle: saline with Tween-80 118 % of control | [2] 114 % of control | endpoint: mean survival time, dose: 266.0 mg/kg/injection, schedule: Q01DX001 (ip), vehicle: saline with Tween-80 123 % of control | endpoint: mean survival time, dose: 300.0 mg/kg/injection, schedule: Q01DX009 (ip), vehicle: saline with Tween-80 93 % of control | endpoint: median survival time, dose: 300.0 mg/kg/injection, schedule: Q01DX009 (ip), vehicle: saline with Tween-80 102 % of control | endpoint: median survival time, dose: 400.0 mg/kg/injection, schedule: Q01DX009 (ip), vehicle: saline with Tween-80 108 % of control | endpoint: median survival time, dose: 400.0 mg/kg/injection, schedule: Q01DX009 (ip), vehicle: saline 97 % of control
active: endpoint: mean survival time, dose: 88.0 mg/kg/injection, schedule: Q01DX009 (ip), vehicle: saline with Tween-80 173 % of control | endpoint: mean survival time, dose: 118.0 mg/kg/injection, schedule: Q04DX003 (ip), vehicle: saline with Tween-80 150 % of control | endpoint: mean survival time, dose: 132.0 mg/kg/injection, schedule: Q01DX009 (ip), vehicle: saline with Tween-80 214 % of control | endpoint: mean survival time, dose: 178.0 mg/kg/injection, schedule: Q04DX003 (ip), vehicle: saline with Tween-80 166 % of control | endpoint: mean survival time, dose: 266.0 mg/kg/injection, schedule: Q04DX003 (ip), vehicle: saline with Tween-80 170 % of control | endpoint: mean survival time, dose: 400.0 mg/kg/injection, schedule: Q04DX003 (ip), vehicle: saline with Tween-80 181 % of control | endpoint: mean survival time, dose: 600.0 mg/kg/injection, schedule: Q04DX003 (ip), vehicle: saline with Tween-80 150 % of control | endpoint: median survival time, dose: 25.0 mg/kg/injection, schedule: Q01DX009 (ip), vehicle: saline with Tween-80 164 % of control | endpoint: median survival time, dose: 50.0 mg/kg/injection, schedule: Q01DX009 (ip), vehicle: saline with Tween-80 188 % of control | endpoint: median survival time, dose: 50.0 mg/kg/injection, schedule: Q01DX009 (ip), vehicle: saline 172 % of control | endpoint: median survival time, dose: 88.0 mg/kg/injection, schedule: Q01DX009 (ip), vehicle: saline with Tween-80 178 % of control | endpoint: median survival time, dose: 100.0 mg/kg/injection, schedule: Q01DX009 (ip), vehicle: saline with Tween-80 175 % of control and 180 % of control | endpoint: median survival time, dose: 100.0 mg/kg/injection, schedule: Q01DX009 (ip), vehicle: saline 209 % of control | endpoint: median survival time, dose: 133.0 mg/kg/injection, schedule: Q01DX009 (ip), vehicle: saline with Tween-80 178 % of control | endpoint: median survival time, dose: 200.0 mg/kg/injection, schedule: Q01DX009 (ip), vehicle: saline with Tween-80 182 % of control and 184 % of control and 213 % of control | endpoint: median survival time, dose: 200.0 mg/kg/injection, schedule: Q01DX009 (ip), vehicle: saline 172 % of control

COC(=O)C(Cl)c1ccccc1 (centres undefined)
inactive: [3] 95 % of control | [4] 100 % of control | [5] 97 % of control

Cc1cc(NCCCCCCNc2cc(C)nc3cc(N(C)C)ccc23)c2ccc(N(C)C)cc2n1
inactive: endpoint: median survival time, dose: 3.12 mg/kg/injection, schedule: Q01DX009 (ip), vehicle: distilled water + Tween-80 + alcohol 121 % of control
active: endpoint: median survival time, dose: 25.0 mg/kg/injection, schedule: Q01DX009 (ip), vehicle: distilled water + Tween-80 + alcohol 152 % of control and 158 % of control

COc1ccc2ccccc2c1-c1c(O)ccc2ccccc12
inactive: endpoint: mean survival time, dose: 12.5 mg/kg/injection, schedule: Q01DX009 (ip), vehicle: other 101 % of control | endpoint: mean survival time, dose: 25.0 mg/kg/injection, schedule: Q01DX009 (ip), vehicle: other 97 % of control | endpoint: mean survival time, dose: 50.0 mg/kg/injection, schedule: Q01DX009 (ip), vehicle: other 91 % of control

O=C(CNC(=O)c1ccccc1)N/N=C/c1ccco1
inactive: [3] 94 % of control | [4] 90 % of control | [5] 95 % of control

CC[N+](CC)=C1SCCCS1
inactive: endpoint: mean survival time, dose: 6.25 mg/kg/injection, schedule: Q04DX003 (ip), vehicle: saline 100 % of control | endpoint: mean survival time, dose: 12.5 mg/kg/injection, schedule: Q04DX003 (ip), vehicle: saline 100 % of control | endpoint: mean survival time, dose: 25.0 mg/kg/injection, schedule: Q04DX003 (ip), vehicle: saline 100 % of control

O=c1nc(N2CCOCC2)ccn1C1OC(CO)C(O)C1O (centres undefined)
inactive: endpoint: mean survival time, dose: 100.0 mg/kg/injection, schedule: Q01DX005 (ip), vehicle: water 104 % of control | endpoint: mean survival time, dose: 200.0 mg/kg/injection, schedule: Q01DX005 (ip), vehicle: water 101 % of control | endpoint: mean survival time, dose: 400.0 mg/kg/injection, schedule: Q01DX005 (ip), vehicle: water 107 % of control

C=CCOP(=O)(OCC=C)C1(Cl)C(Cl)=C(Cl)C(=O)C(Cl)=C1Cl
inactive: endpoint: mean survival time, dose: 25.0 mg/kg/injection, schedule: Q01DX009 (ip), vehicle: saline + alcohol 96 % of control | endpoint: mean survival time, dose: 50.0 mg/kg/injection, schedule: Q01DX009 (ip), vehicle: saline + alcohol 96 % of control | endpoint: mean survival time, dose: 100.0 mg/kg/injection, schedule: Q01DX009 (ip), vehicle: saline + alcohol 96 % of control | [3] 100 % of control

CCCCC(CC)C(=O)[O][Sn]([CH2]CCC)([CH2]CCC)[O]C(=O)C(CC)CCCC (centres undefined)
inactive: endpoint: mean survival time, dose: 1.5 mg/kg/injection, schedule: Q01DX009 (ip), vehicle: saline with Tween-80 100 % of control | endpoint: mean survival time, dose: 3.0 mg/kg/injection, schedule: Q01DX009 (ip), vehicle: saline with Tween-80 100 % of control | endpoint: mean survival time, dose: 6.0 mg/kg/injection, schedule: Q01DX009 (ip), vehicle: saline with Tween-80 104 % of control | endpoint: mean survival time, dose: 6.25 mg/kg/injection, schedule: Q04DX003 (ip), vehicle: saline with Tween-80 105 % of control

O=c1sc(N=Nc2ccccc2)nn1-c1ccccc1
inactive: endpoint: mean survival time, dose: 100.0 mg/kg/injection, schedule: Q04DX003 (ip), vehicle: saline 92 % of control | endpoint: mean survival time, dose: 200.0 mg/kg/injection, schedule: Q04DX003 (ip), vehicle: saline 91 % of control

OCCCNCc1ccccc1
inactive: endpoint: mean survival time, dose: 100.0 mg/kg/injection, schedule: Q01DX009 (ip), vehicle: saline 97 % of control | endpoint: mean survival time, dose: 200.0 mg/kg/injection, schedule: Q01DX009 (ip), vehicle: saline 96 % of control | endpoint: mean survival time, dose: 400.0 mg/kg/injection, schedule: Q01DX009 (ip), vehicle: saline 100 % of control

CC1(C)CC2(OC2c2ccc([N+](=O)[O-])cc2)C(=O)c2ccccc21 (centres undefined)
inactive: endpoint: mean survival time, dose: 12.5 mg/kg/injection, schedule: Q01DX009 (ip), vehicle: Klucel (hydroxypropylcellulose) (HPC) 93 % of control | endpoint: mean survival time, dose: 25.0 mg/kg/injection, schedule: Q01DX009 (ip), vehicle: Klucel (hydroxypropylcellulose) (HPC) 94 % of control | endpoint: mean survival time, dose: 50.0 mg/kg/injection, schedule: Q01DX009 (ip), vehicle: Klucel (hydroxypropylcellulose) (HPC) 98 % of control | [6] 93 % of control | endpoint: mean survival time, dose: 100.0 mg/kg/injection, schedule: Q01DX009 (ip), vehicle: Klucel (hydroxypropylcellulose) (HPC) 100 % of control | [3] 93 % of control | endpoint: mean survival time, dose: 100.0 mg/kg/injection, schedule: Q04DX003 (ip), vehicle: saline with Tween-80 89 % of control | endpoint: mean survival time, dose: 200.0 mg/kg/injection, schedule: Q01DX009 (ip), vehicle: Klucel (hydroxypropylcellulose) (HPC) 100 % of control | [4] 96 % of control | endpoint: mean survival time, dose: 200.0 mg/kg/injection, schedule: Q04DX003 (ip), vehicle: saline with Tween-80 88 % of control | endpoint: mean survival time, dose: 400.0 mg/kg/injection, schedule: Q01DX009 (ip), vehicle: Klucel (hydroxypropylcellulose) (HPC) 96 % of control

CCOC(=O)C(=C=C(C(=O)OCC)C(=O)OCC)C(=O)OCC
inactive: endpoint: mean survival time, dose: 25.0 mg/kg/injection, schedule: Q01DX005 (ip), vehicle: saline with Tween-80 97 % of control | endpoint: mean survival time, dose: 25.0 mg/kg/injection, schedule: Q01DX009 (ip), vehicle: saline with Tween-80 95 % of control | endpoint: mean survival time, dose: 25.0 mg/kg/injection, schedule: Q04DX002 (ip), vehicle: saline with Tween-80 103 % of control | endpoint: mean survival time, dose: 50.0 mg/kg/injection, schedule: Q01DX005 (ip), vehicle: saline with Tween-80 92 % of control and 97 % of control | [6] 98 % of control | endpoint: mean survival time, dose: 50.0 mg/kg/injection, schedule: Q04DX002 (ip), vehicle: saline with Tween-80 88 % of control and 106 % of control | endpoint: mean survival time, dose: 100.0 mg/kg/injection, schedule: Q01DX005 (ip), vehicle: saline with Tween-80 94 % of control | [3] 95 % of control | [1] 103 % of control and 106 % of control | endpoint: mean survival time, dose: 200.0 mg/kg/injection, schedule: Q01DX005 (ip), vehicle: saline with Tween-80 86 % of control and 94 % of control | [4] 91 % of control | [2] 95 % of control and 98 % of control | endpoint: mean survival time, dose: 400.0 mg/kg/injection, schedule: Q04DX002 (ip), vehicle: saline with Tween-80 98 % of control
